# Results from US10568819B2, “Skin enhancing compositions and methods” (Sytheon Limited, priority 2016, dated 2020).
# Where two headings read alike, the source gives them in different places.
# How the values were obtained:
# Collagen type 4 = assay: Collagen 4 boosting in human dermal fibroblasts; assay type: cell-based; conditions: HDF, incubation time of 6 days
# Method: (§1) In this study, an investigation was performed in relation to the ability, if any, of the aryl alkanones to boost the production of Collagens 1, 3 and 4 proteins. […] In this study, the cells used were human dermal fibroblasts (HDF), passage 12 (Cell Applications, San Diego, Calif.) which underwent an incubation time of 6 days.
# NOX = conditions: UVA, Fibroblasts
# COL6A1 = assay: PCR array gene expression, COL6A1; assay type: cell-based
# Source text: (§2) In light of the efficacy of the aryl alkanones ire addressing many of the molecular/biomolecular processes damaged by UV exposure, a study was undertaken to assess whether these compounds would also be effective in addressing symptoms associated with non-UV induced skin aging including chronological aging as well as disease conditions that likewise adversely affect skin processes. The studies conducted involves DNA microarray, PCR array, cell culture, enzyme inhibitory activity.
# ELN = assay: DNA microarray gene expression, ELN; assay type: cell-based
# Source text: as §2
# MMP3 [1] = assay: DNA microarray gene expression, MMP3; assay type: cell-based
# Source text: as §2
# Cell # = assay: Cell number (Sulforhodamine B assay) after UVA irradiation; assay type: cell-based; conditions: 3 hours after irradiation
# Method: (§3) The study was conducted in accordance with the protocols of Berridge et al, (M V Berridge & A S Tan, Characterization of the cellular reduction of 3-(4,5-dimethylthiazol-2-yl)-2,5-diphenyltetrazolium bromide (MTT): subcellular localization, substrate dependence, and involvement of mitochondrial electron transport in MTT reduction, Arch. Biochem. Biophys. 303:474-482, 1993) and Voigt (W Voigt, Sulforhodamine B assay and chemosensitivity, Methods Mol Med, 110:39-48, 2005). Cellular metabolism is determined using the MTT assay to measure the activity of mitochondrial dehydrogenases, such as succinate dehydrogenase, which are implicated in the respiratory electron transport chain in mitochondria [M V Berridge & Tan Biochem Biophys, 303:474-482, 1993]. Additionally, the samples were subject to the Mitochondrial ToxGlo Assay (Promega Technical Manual, G8000 and G8001), which is a cell-based assay method that has been developed to quantify potential mitochondrial dysfunction as a result of xenobiotic exposure, using a sequential-addition, multiplexed chemistry.
# (§4) Table 8 presents the result on the effect of UVA radiation on cell metabolism 3 hours after irradiation. As indicated, Compound 1 improves cell metabolism, even at a very low use concentration. Table 9 presents the effect of 24 hour pre-incubation on UVA-induced mitochondrial damage measured by ATP production in human dermal fibroblasts. […] Finally. Table 10 presents the effect of 24 hour pre-incubation on UVA-induced plasma membrane disruption in human dermal fibroblasts. As indicated, Compound 1 almost completely reversed plasma membrane disruption, again at a very low use concentration.
# [2] = system: mitochondrial dehydrogenases; assay: MTT assay of cellular metabolism after UVA irradiation; assay type: cell-based; conditions: 3 hours after irradiation
# Method: as §3, §4
# ITGB5 = assay: PCR array gene expression, ITGB5; assay type: cell-based
# Source text: as §2
# COL11A1 [3] = assay: PCR array gene expression, COL11A1; assay type: cell-based
# Source text: as §2
# FMOD = assay: DNA microarray gene expression, FMOD; assay type: cell-based
# Source text: as §2
# ITGA4 = assay: DNA microarray gene expression, ITGA4; assay type: cell-based
# Source text: as §2
# Collagen type 3 = assay: Collagen 3 boosting in human dermal fibroblasts; assay type: cell-based; conditions: HDF, incubation time of 6 days
# Method: In this study, an investigation was performed in relation to the ability, if any, of the aryl alkanones to boost the production of Collagens 1, 3 and 4 proteins. The study was conducted using human fibroblasts in accordance with the method of J Dobak et at (J Dobak, J Grzybowski, F T Liu, B Landon, M Dobke, 1, 25-Dihydroxyvitamin D3 increases collagen production in dermal fibroblasts, J Dermatol Sci 1994; 8:18-24, 1994). In this study, the cells used were human dermal fibroblasts (HDF), passage 12 (Cell Applications, San Diego, Calif.) which underwent an incubation time of 6 days.
# Collagen type 1 = assay: Collagen 1 boosting in human dermal fibroblasts; assay type: cell-based; conditions: HDF, incubation time of 6 days
# Method: as §1
# VMN = assay: DNA microarray gene expression, VMN; assay type: cell-based
# Source text: as §2
# LAMC1 = assay: PCR array gene expression, LAMC1; assay type: cell-based
# Source text: as §2
# COL5A1 = assay: PCR array gene expression, COL5A1; assay type: cell-based
# Source text: as §2
# TIMP3 [4] = assay: PCR array gene expression, TIMP3; assay type: cell-based
# Source text: as §2
# TIMP3 [5] = assay: DNA microarray gene expression, TIMP3; assay type: cell-based
# Source text: as §2
# MMP3 [6] = assay: PCR array gene expression, MMP3; assay type: cell-based
# Source text: as §2
# COL11A1 [7] = assay: DNA microarray gene expression, COL11A1; assay type: cell-based
# Source text: as §2
# VCAN = assay: DNA microarray gene expression, VCAN; assay type: cell-based
# Source text: as §2
# MMP-3 enzyme = molecular target: T1, MMP-3 enzyme (Homo sapiens, UniProt P08254); assay: MMP-3 inhibition; assay type: biochemical; conditions: read-out: Inhibitory concentration (IC50), MMP-3
# T1 construct: purchased Anaspec
# T1 sequence (P08254 100-477, species assumed): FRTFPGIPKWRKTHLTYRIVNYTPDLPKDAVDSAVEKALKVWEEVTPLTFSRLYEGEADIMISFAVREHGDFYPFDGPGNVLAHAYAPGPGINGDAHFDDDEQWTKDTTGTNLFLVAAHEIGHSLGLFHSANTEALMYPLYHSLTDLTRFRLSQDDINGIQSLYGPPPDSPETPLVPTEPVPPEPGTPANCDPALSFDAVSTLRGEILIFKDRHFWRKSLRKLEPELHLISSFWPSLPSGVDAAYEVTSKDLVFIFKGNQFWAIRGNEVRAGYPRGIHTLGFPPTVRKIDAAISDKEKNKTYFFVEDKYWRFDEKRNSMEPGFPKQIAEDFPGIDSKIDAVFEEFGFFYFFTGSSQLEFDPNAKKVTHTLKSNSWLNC
# Method: Another study was conducted in which the elastin and MMP activity of Compound 1 was evaluated. The methodology for the study of MMP-1 and MMP-3 activity was as follows: • A 0.1 g sample of Compound 1 was dissolved in 1 ml DMSO, then it was diluted 100× with Tris buffer (50 mM Iris pH 7.5, 150 mM NaCl, 2 mM CaCl2, 5μ ZnO4, 0.01% Brij-35) to make a stock solution. For the analysis, different concentrations of Compound 1 were used to determine the IC50. The sample and 100 ng/ml MMP-1 enzyme (Anaspec) or MMP-3 enzyme (Anaspec) were incubated at 37° C. for 10 minutes before the addition of 2.25 μM PEPDAB008 substrate (Biozyme). The fluorescence signal was monitored at excitation of 485 nm and emission of 530 nm.
# COL11A2 = assay: DNA microarray gene expression, COL11A2; assay type: cell-based
# Source text: as §2
# TNS2 = assay: DNA microarray gene expression, TNS2; assay type: cell-based
# Source text: as §2
# MSH6 = assay: DNA microarray gene expression, MSH6; assay type: cell-based
# Source text: as §2
structure (smiles),measurement,setting,value
"COc1cc(CC(C(C)=O)C(C)=O)ccc1O [Compound 1, Acetyl Zingerone]",% Collagen 4 Boosting,Collagen type 4; 50 μg/ml,145%
same,% Collagen 4 Boosting,Collagen type 4; 100 μg/ml,245%
same,reduction of NOX activity,NOX; 25 μg/ml,−27%
same,reduction of NOX activity,NOX; 50 μg/ml,−33%
same,"PCR array, COL6A1 gene expression",COL6A1,+1.5
same,"Microarray, ELN gene expression",ELN,+1.7
same,"Microarray, MMP3 gene expression",MMP3 [1],−2.4
same,Cell # (% Control),Cell #; 0.5 μg/ml,99 % Control
same,Cell # (% Control),Cell #; 2 μg/ml,101 % Control
same,Cell # (% Control),Cell #; 5 μg/ml,95 % Control
same,Cell Metabolism Standardized to cell # (% Control),[2]; 0.5 μg/ml,123 % Control
same,MTT (% Control),[2]; 0.5 μg/ml,122 % Control
same,Cell Metabolism Standardized to cell # (% Control),[2]; 2 μg/ml,136 % Control
same,MTT (% Control),[2]; 2 μg/ml,137 % Control
same,Cell Metabolism Standardized to cell # (% Control),[2]; 5 μg/ml,174 % Control
same,MTT (% Control),[2]; 5 μg/ml,164 % Control
same,"PCR array, ITGB5 gene expression",ITGB5,+1.7
same,"PCR array, COL11A1 gene expression",COL11A1 [3],+1.9
same,"Microarray, FMOD gene expression",FMOD,+1.6
same,"Microarray, ITGA4 gene expression",ITGA4,+1.6
same,% Collagen 3 boosting,Collagen type 3; 50 μg/ml,111%
same,% Collagen 3 boosting,Collagen type 3; 100 μg/ml,146%
same,% Collagen 1 Bosting,Collagen type 1; 50 μg/ml,118%
same,% Collagen 1 Bosting,Collagen type 1; 100 μg/ml,173%
same,"Microarray, VMN gene expression",VMN,+1.7
same,"PCR array, LAMC1 gene expression",LAMC1,+2.0
same,"PCR array, COL5A1 gene expression",COL5A1,+2.7
same,"PCR array, TIMP3 gene expression",TIMP3 [4],+2.4
same,"Microarray, TIMP3 gene expression",TIMP3 [5],+5.1
same,"PCR array, MMP3 gene expression",MMP3 [6],−2.5
same,"Microarray, COL11A1 gene expression",COL11A1 [7],+1.6
same,"Microarray, VCAN gene expression",VCAN,+1.7
same,IC50,MMP-3 enzyme,2.14 mM
same,"Microarray, COL11A2 gene expression",COL11A2,+5.2
same,"Microarray, TNS2 gene expression",TNS2,+1.7
same,"Microarray, MSH6 gene expression",MSH6,+2.1
